# Assay results published in ChEMBL document CHEMBL1201861, “Genomics of Drug Sensitity in Cancer screening data, Wellcome Trust Sanger Institute”.
# Legend:
# Assay in all cases: cells
# SN12C = type: functional, cell-based, Homo sapiens; conditions: Homo sapiens, SN12C;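 also: growth inhibition of human SN12C cells, measured by a cell viability assay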
# Description: SANGER: Inhibition of human SN12C cell growth in a cell viability assay.
# CP50-MEL-B = type: functional, cell-based, Homo sapiens; conditions: Homo sapiens, CP50-MEL-B;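 also: growth inhibition of the human cell line, measured with a cell viability read-out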
# Description: SANGER: Inhibition of human CP50-MEL-B cell growth in a cell viability assay.
# ASPC1 = type: functional, cell-based, Homo sapiens; conditions: Homo sapiens, ASPC1;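 also: growth inhibition of AsPC-1 cells, read out with a cell viability assay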
# Description: SANGER: Inhibition of human AsPC-1 cell growth in a cell viability assay.
# CAL-27 = type: functional, cell-based, Homo sapiens; conditions: Homo sapiens, CAL-27;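 also: Viability-based readout, IC50 reflecting inhibition of CAL-27 cell growth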
# Description: SANGER: Inhibition of human CAL-27 cell growth in a cell viability assay.
# Calu-3 = type: functional, cell-based, Homo sapiens; conditions: Homo sapiens, Calu-3;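 also: growth inhibition of human Calu-3 cells, determined with a cell viability assay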
# Description: SANGER: Inhibition of human Calu-3 cell growth in a cell viability assay.
# NCI-H1755 = type: functional, cell-based, Homo sapiens; conditions: Homo sapiens, NCI-H1755;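 also: cell viability readout used to measure growth inhibition of NCI-H1755 cells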
# Description: SANGER: Inhibition of human NCI-H1755 cell growth in a cell viability assay.
# AN3-CA = type: functional, cell-based, Homo sapiens; conditions: Homo sapiens, AN3-CA;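 also: growth inhibition of human AN3-CA cells measured by a cell viability assay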
# Description: SANGER: Inhibition of human AN3-CA cell growth in a cell viability assay.
# LCLC-97TM1 = type: functional, cell-based, Homo sapiens; conditions: Homo sapiens, LCLC-97TM1;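 also: cell viability assay measuring growth inhibition of human LCLC-97TM1 cells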
# Description: SANGER: Inhibition of human LCLC-97TM1 cell growth in a cell viability assay.
# ZR-75-30 = type: functional, cell-based, Homo sapiens; conditions: Homo sapiens, ZR-75-30;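 also: growth inhibition of ZR-75-30 cells, measured with a cell viability readout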
# Description: SANGER: Inhibition of human ZR-75-30 cell growth in a cell viability assay.
# P12-Ichikawa = type: functional, cell-based, Homo sapiens; conditions: Homo sapiens, P12-Ichikawa
# H-EMC-SS = type: functional, cell-based, Homo sapiens; conditions: Homo sapiens, H-EMC-SS
# Description: SANGER: Inhibition of human H-EMC-SS cell growth in a cell viability assay.
# SCC-9 = type: functional, cell-based, Homo sapiens; conditions: Homo sapiens, SCC-9;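 also: Read-out is a cell viability assay, with values giving inhibition of cell growth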
# Description: SANGER: Inhibition of human SCC-9 cell growth in a cell viability assay.
# KYSE-150 cell line = type: functional, cell-based, Homo sapiens; conditions: Homo sapiens, KYSE-150;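 also: growth inhibition of human KYSE-150 cells, read out with a cell viability assay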
# Description: SANGER: Inhibition of human KYSE-150 cell growth in a cell viability assay.
# Panc1005 = type: functional, cell-based, Homo sapiens; conditions: Homo sapiens, Panc1005;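 also: growth inhibition of human PANC-10-05 cells, measured by a cell viability assay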
# Description: SANGER: Inhibition of human PANC-10-05 cell growth in a cell viability assay.
# HT-1376 = type: functional, cell-based, Homo sapiens; conditions: Homo sapiens, HT-1376
# Description: SANGER: Inhibition of human HT-1376 cell growth in a cell viability assay.
# HSC-3 = type: functional, cell-based, Homo sapiens; conditions: Homo sapiens, HSC-3
# Description: SANGER: Inhibition of human HSC-3 cell growth in a cell viability assay.
# HuP-T3 = type: functional, cell-based, Homo sapiens; conditions: Homo sapiens, HuP-T3;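 also: HuP-T3 cell growth inhibition, read out with a cell viability assay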
# Description: SANGER: Inhibition of human HuP-T3 cell growth in a cell viability assay.
# BFTC-905 = type: functional, cell-based, Homo sapiens; conditions: Homo sapiens, BFTC-905
# Description: SANGER: Inhibition of human BFTC-905 cell growth in a cell viability assay.
# ACHN = type: functional, cell-based, Homo sapiens; conditions: Homo sapiens, ACHN;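 also: cell viability read-out used to gauge how strongly growth of human ACHN cells is suppressed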
# Description: SANGER: Inhibition of human ACHN cell growth in a cell viability assay.
# MDA-MB-361 = type: functional, cell-based, Homo sapiens; conditions: Homo sapiens, MDA-MB-361
# SF-295 = type: functional, cell-based, Homo sapiens; conditions: Homo sapiens, SF-295;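 also: growth inhibition of SF-295 cells, read out with a cell viability assay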
# Description: SANGER: Inhibition of human SF295 cell growth in a cell viability assay.
# BFTC-909 = type: functional, cell-based, Homo sapiens; conditions: Homo sapiens, BFTC-909
# Description: SANGER: Inhibition of human BFTC-909 cell growth in a cell viability assay.
# OVCAR-5 = type: functional, cell-based, Homo sapiens; conditions: Homo sapiens, OVCAR-5;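 also: growth inhibition of human OVCAR-5 cells, read out with a cell viability assay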
# Description: SANGER: Inhibition of human OVCAR-5 cell growth in a cell viability assay.
# NCI-H727 = type: functional, cell-based, Homo sapiens; conditions: Homo sapiens, NCI-H727;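 also: growth inhibition of human NCI-H727 cells, read out with a cell viability assay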
# Description: SANGER: Inhibition of human NCI-H727 cell growth in a cell viability assay.
# SK-MEL3 = type: functional, cell-based, Homo sapiens, SK-MEL-3; conditions: Homo sapiens, SK-MEL3;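 also: growth inhibition of human SK-MEL-3 cells, read out with a cell viability assay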
# Description: SANGER: Inhibition of human SK-MEL-3 cell growth in a cell viability assay.
# DU-145 = type: functional, cell-based, Homo sapiens; conditions: Homo sapiens, DU-145
# Description: SANGER: Inhibition of human DU-145 cell growth in a cell viability assay.
# KYSE-510 = type: functional, cell-based, Homo sapiens; conditions: Homo sapiens, KYSE-510;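 also: cell viability readout used to measure how strongly growth of the cell line is suppressed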
# Description: SANGER: Inhibition of human KYSE-510 cell growth in a cell viability assay.
# SK-HEP1 = type: functional, cell-based, Homo sapiens, SK-HEP-1; conditions: Homo sapiens, SK-HEP1;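 also: cell viability readout used to quantify reduction in proliferation of human SK-HEP-1 cells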
# Description: SANGER: Inhibition of human SK-HEP-1 cell growth in a cell viability assay.
# NCI-H1563 = type: functional, cell-based, Homo sapiens; conditions: Homo sapiens, NCI-H1563;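 also: growth inhibition of human NCI-H1563 cells, read out with a cell viability assay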
# Description: SANGER: Inhibition of human NCI-H1563 cell growth in a cell viability assay.
# C-33-A = type: functional, cell-based, Homo sapiens; conditions: Homo sapiens, C-33-A;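 also: cell viability assay measuring growth inhibition of C-33-A cells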
# Description: SANGER: Inhibition of human C-33-A cell growth in a cell viability assay.
# SW 1116 = type: functional, cell-based, Homo sapiens; conditions: Homo sapiens, SW 1116;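 also: growth inhibition of SW1116 cells, read out with a cell viability assay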
# Description: SANGER: Inhibition of human SW1116 cell growth in a cell viability assay.
# HuCCT-1 = type: functional, cell-based, Homo sapiens, HuCCT1; conditions: Homo sapiens, HuCCT-1;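 also: growth inhibition of HuCCT-1 cells, read out by a cell viability assay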
# Description: SANGER: Inhibition of human HuCCT1 cell growth in a cell viability assay.
# CAL-85-1 = type: functional, cell-based, Homo sapiens; conditions: Homo sapiens, CAL-85-1;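 also: growth inhibition of human CAL-85-1 cells, read out with a cell viability assay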
# Description: SANGER: Inhibition of human CAL-85-1 cell growth in a cell viability assay.
# RCM-1 = type: functional, cell-based, Homo sapiens; conditions: Homo sapiens, RCM-1;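 also: growth inhibition of the RCM-1 line, determined with a cell viability readout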
# Description: SANGER: Inhibition of human RCM-1 cell growth in a cell viability assay.
# A2058 = type: functional, cell-based, Homo sapiens; conditions: Homo sapiens, A2058;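 also: reduction of A2058 cell growth, read out with a viability assay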
# Description: SANGER: Inhibition of human A2058 cell growth in a cell viability assay.
# NCI-H810 = type: functional, cell-based, Homo sapiens; conditions: Homo sapiens, NCI-H810;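 also: IC50 reflects inhibition of cancer cell line growth, read out with a cell viability assay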
# Description: SANGER: Inhibition of human NCI-H810 cell growth in a cell viability assay.
# NCI-H2052 = type: functional, cell-based, Homo sapiens; conditions: Homo sapiens, NCI-H2052;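 also: growth inhibition of NCI-H2052 cells, read out with a cell viability assay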
# Description: SANGER: Inhibition of human NCI-H2052 cell growth in a cell viability assay.
# SK-MEL-24 = type: functional, cell-based, Homo sapiens; conditions: Homo sapiens, SK-MEL-24;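 also: growth inhibition read out by a cell viability assay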
# Description: SANGER: Inhibition of human SK-MEL-24 cell growth in a cell viability assay.
# HCC1569 = type: functional, cell-based, Homo sapiens; conditions: Homo sapiens, HCC1569;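 also: growth inhibition of human HCC1569 cells, read out with a cell viability assay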
# Description: SANGER: Inhibition of human HCC1569 cell growth in a cell viability assay.
# JEG-3 = type: functional, cell-based, Homo sapiens; conditions: Homo sapiens, JEG-3;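 also: growth inhibition of human JEG-3 cells, read out with a cell viability assay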
# Description: SANGER: Inhibition of human JEG-3 cell growth in a cell viability assay.
# PC-14 = type: functional, cell-based, Homo sapiens; conditions: Homo sapiens, PC-14;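 also: cell viability assay measuring inhibition of PC-14 cell growth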
# Description: SANGER: Inhibition of human PC-14 cell growth in a cell viability assay.
# HOP-92 = type: functional, cell-based, Homo sapiens; conditions: Homo sapiens, HOP-92;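 also: cell viability readout, with IC50 reflecting inhibition of HOP-92 cell growth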
# Description: SANGER: Inhibition of human HOP-92 cell growth in a cell viability assay.
# HT1197 = type: functional, cell-based, Homo sapiens, HT-1197; conditions: Homo sapiens, HT1197
# Description: SANGER: Inhibition of human HT-1197 cell growth in a cell viability assay.
compound,measurement,setting,value
Cc1cn(-c2cc(NC(=O)c3ccc(C)c(Nc4nccc(-c5cccnc5)n4)c3)cc(C(F)(F)F)c2)cn1 [NILOTINIB],IC50,SN12C,> 2000 nM
same,IC50,CP50-MEL-B,> 2000 nM
same,IC50,ASPC1,> 2000 nM
same,IC50,CAL-27,> 2000 nM
same,IC50,Calu-3,> 2000 nM
same,IC50,NCI-H1755,> 2000 nM
same,IC50,AN3-CA,> 2000 nM
same,IC50,LCLC-97TM1,> 2000 nM
same,IC50,ZR-75-30,> 2000 nM
same,IC50,P12-Ichikawa,> 2000 nM
same,IC50,H-EMC-SS,> 2000 nM
same,IC50,SCC-9,> 2000 nM
same,IC50,KYSE-150 cell line,> 2000 nM
same,IC50,Panc1005,> 2000 nM
same,IC50,HT-1376,> 2000 nM
same,IC50,HSC-3,> 2000 nM
same,IC50,HuP-T3,> 2000 nM
same,IC50,BFTC-905,> 2000 nM
same,IC50,ACHN,> 2000 nM
same,IC50,MDA-MB-361,> 2000 nM
same,IC50,SF-295,> 2000 nM
same,IC50,BFTC-909,> 2000 nM
same,IC50,OVCAR-5,> 2000 nM
same,IC50,NCI-H727,> 2000 nM
same,IC50,SK-MEL3,> 2000 nM
same,IC50,DU-145,> 2000 nM
same,IC50,KYSE-510,> 2000 nM
same,IC50,SK-HEP1,> 2000 nM
same,IC50,NCI-H1563,> 2000 nM
same,IC50,C-33-A,> 2000 nM
same,IC50,SW 1116,> 2000 nM
same,IC50,HuCCT-1,> 2000 nM
same,IC50,CAL-85-1,> 2000 nM
same,IC50,RCM-1,> 2000 nM
same,IC50,A2058,> 2000 nM
same,IC50,NCI-H810,> 2000 nM
same,IC50,NCI-H2052,> 2000 nM
same,IC50,SK-MEL-24,> 2000 nM
same,IC50,HCC1569,> 2000 nM
same,IC50,JEG-3,> 2000 nM
same,IC50,PC-14,> 2000 nM
same,IC50,HOP-92,> 2000 nM
same,IC50,HT1197,> 2000 nM
CCN(CC)CCCCNc1ncc2cc(-c3cc(OC)cc(OC)c3)c(NC(=O)NC(C)(C)C)nc2n1 [PD-173074],IC50,SN12C,> 2000 nM
same,IC50,CP50-MEL-B,> 2000 nM
same,IC50,ASPC1,> 2000 nM
same,IC50,CAL-27,> 2000 nM
same,IC50,Calu-3,> 2000 nM
same,IC50,NCI-H1755,> 2000 nM
same,IC50,AN3-CA,401 nM
same,IC50,LCLC-97TM1,> 2000 nM
same,IC50,ZR-75-30,> 2000 nM
same,IC50,P12-Ichikawa,> 2000 nM
same,IC50,H-EMC-SS,347 nM
same,IC50,SCC-9,> 2000 nM
same,IC50,KYSE-150 cell line,> 2000 nM
same,IC50,Panc1005,> 2000 nM
same,IC50,HT-1376,> 2000 nM
same,IC50,HSC-3,> 2000 nM
same,IC50,HuP-T3,> 2000 nM
same,IC50,BFTC-905,> 2000 nM
same,IC50,ACHN,> 2000 nM
same,IC50,MDA-MB-361,> 2000 nM
same,IC50,SF-295,> 2000 nM
same,IC50,BFTC-909,> 2000 nM
same,IC50,OVCAR-5,> 2000 nM
same,IC50,NCI-H727,> 2000 nM
same,IC50,SK-MEL3,> 2000 nM
same,IC50,DU-145,1580 nM
same,IC50,KYSE-510,> 2000 nM
same,IC50,SK-HEP1,> 2000 nM
same,IC50,NCI-H1563,> 2000 nM
same,IC50,C-33-A,> 2000 nM
same,IC50,SW 1116,> 2000 nM
same,IC50,HuCCT-1,> 2000 nM
same,IC50,CAL-85-1,> 2000 nM
same,IC50,RCM-1,> 2000 nM
same,IC50,A2058,> 2000 nM
same,IC50,NCI-H810,> 2000 nM
same,IC50,NCI-H2052,> 2000 nM
same,IC50,SK-MEL-24,> 2000 nM
same,IC50,HCC1569,> 2000 nM
same,IC50,JEG-3,> 2000 nM
same,IC50,PC-14,> 2000 nM
same,IC50,HOP-92,> 2000 nM
same,IC50,HT1197,> 2000 nM
CO[C@H]1C[C@@H]2CC[C@@H](C)[C@@](O)(O2)C(=O)C(=O)N2CCCC[C@H]2C(=O)O[C@H]([C@H](C)C[C@@H]2CC[C@@H](OC(=O)C(C)(CO)CO)[C@H](OC)C2)CC(=O)[C@H](C)/C=C(\C)[C@@H](O)[C@@H](OC)C(=O)[C@H](C)C[C@H](C)/C=C/C=C/C=C/1C [TEMSIROLIMUS],IC50,SN12C,183 nM
same,IC50,CP50-MEL-B,> 200 nM
same,IC50,ASPC1,> 200 nM
same,IC50,CAL-27,> 200 nM
same,IC50,Calu-3,> 200 nM
same,IC50,NCI-H1755,> 200 nM
same,IC50,AN3-CA,56.9 nM
same,IC50,LCLC-97TM1,> 200 nM
same,IC50,ZR-75-30,> 200 nM
same,IC50,P12-Ichikawa,13 nM
same,IC50,H-EMC-SS,> 200 nM
same,IC50,SCC-9,> 200 nM
same,IC50,KYSE-150 cell line,> 200 nM
same,IC50,Panc1005,155 nM
same,IC50,HT-1376,> 200 nM
same,IC50,HSC-3,38.7 nM
same,IC50,HuP-T3,> 200 nM
same,IC50,BFTC-905,> 200 nM
same,IC50,ACHN,> 200 nM
same,IC50,MDA-MB-361,> 200 nM
same,IC50,SF-295,60.5 nM
same,IC50,BFTC-909,> 200 nM
same,IC50,OVCAR-5,124 nM
same,IC50,NCI-H727,> 200 nM
same,IC50,SK-MEL3,> 200 nM
same,IC50,DU-145,> 200 nM
same,IC50,KYSE-510,> 200 nM
same,IC50,SK-HEP1,> 200 nM
same,IC50,NCI-H1563,106 nM
same,IC50,C-33-A,> 200 nM
same,IC50,SW 1116,> 200 nM
same,IC50,HuCCT-1,> 200 nM
same,IC50,CAL-85-1,> 200 nM
same,IC50,RCM-1,> 200 nM
same,IC50,A2058,26.6 nM
same,IC50,NCI-H810,> 200 nM
same,IC50,NCI-H2052,> 200 nM
same,IC50,SK-MEL-24,77 nM
same,IC50,HCC1569,> 200 nM
same,IC50,JEG-3,> 200 nM
same,IC50,PC-14,> 200 nM
same,IC50,HOP-92,> 200 nM
same,IC50,HT1197,> 200 nM
